Experimental data taken from patent US8143244B2, “Cyclopropyl fused indolobenzazepine HCV NS5B inhibitors” (Bristol-Myers Squibb Company, priority 2009, dated 2012).
pEC50: −log10 of the molar value.

System: HCV replicon
Test: HCV replicon FRET / luciferase assay (NeoLuc)
Format: cell-based, HCV genotype 1b
Conditions: Hepatitis C virus, Table 2; HCV replicon cells; read-out: NeoLuc EC50
Excerpt: FRET Assay Preparation. To perform the HCV FRET screening assay, 96-well cell culture plates were used. The FRET peptide (Anaspec, Inc.) (Taliani et al., Anal. Biochem. 1996, 240, 60-67) contains a fluorescence donor, EDANS, near one end of the peptide and an acceptor, DABCYL, near the other end. The fluorescence of the peptide is quenched by […] resonance energy transfer (RET) between the donor and the acceptor, but as the NS3 protease cleaves the peptide the products are released from RET quenching and the fluorescence of the donor becomes apparent. The assay reagent was made as follows: 5× cell Luciferase cell culture lysis reagent from Promega (#E153A) diluted to 1× with dH2O, NaCl added to 150 mM final, the FRET peptide diluted to 20 μM final from a 2 mM stock.
To prepare plates, HCV replicon cells, with or without a Renilla luciferase reporter gene, were trypsinized and placed into each well of a 96-well plate with titrated test compounds added in columns 3 through 12; columns 1 and 2 contained a control compound (HCV protease inhibitor), and the bottom row contained cells without compound. The plates were then placed in a CO2 incubator at 37° C.
Assays. Subsequent to addition of the test compounds described above (FRET Assay Preparation), at various times the plate was removed and Alamar blue solution (Trek Diagnostics, #00-100) was added per well as a measure of cellular toxicity. After reading in a Cytoflour 4000 instrument (PE Biosystems), plates were rinsed with PBS and then used for FRET assay by the addition of 30 ul of the FRET peptide assay reagent described above (FRET Assay Preparation) per well. The plate was then placed into the Cytoflour 4000 instrument which had been set to 340 excite/490 emission, automatic mode for 20 cycles and the plate read in a kinetic mode. Typically, the signal to noise using an endpoint analysis after the reads was at least three-fold. Alternatively, after Alamar blue reading, plates were rinsed with PBS, 50 ul of DMEM (high glucose) without phenol red was added and plates were then used for luciferase assay using the Promega Dual-Glo Luciferase Assay System,
Compound analysis was deteiniined by quantification of the relative HCV replicon inhibition and the relative cytotoxicity values. To calculate cytoxicity values, the average Alamar Blue fluorescence signals from the control wells were set as 100% non-toxic. The individual signals in each of the compound test wells were then divided by the average control signal and multiplied by 100% to determine […]. To calculate the HCV replicon inhibition values, an average background value was obtained from the two wells containing the highest amount of HCV protease inhibitor at the end of the assay period. These numbers were similar to those obtained from naïve Huh-7 cells.
The background numbers were then subtracted from the average signal obtained from the control wells and this number was used as 100% activity. The individual signals in each of the compound test wells were then divided by the averaged control values after background subtraction and multiplied by 100% to determine percent activity. EC50 values for a protease inhibitor titration were calculated as the concentration which caused a 50% reduction in FRET or luciferase activity. The two numbers generated for the compound plate, percent cytoxicity and percent activity were used to determine compounds of interest for further analysis.

Compound	pEC50
COc1ccc2c(c1)C1CC1(C(=O)N1CC34CNCC3(CN(C)C4)C1)Cn1c-2c(C2CCCCC2)c2ccc(C(=O)NS(=O)(=O)C3CC3)cc21 (stereo not shown)	< 6.00
COc1ccc2c(c1)C1CC1(C(=O)N1CC34COCC3(CN(C)C4)C1)Cn1c-2c(C2CCCCC2)c2ccc(C(=O)NS(=O)(=O)N(C)C)cc21 (stereo not shown) [drawing 106]	7.70

Same assay, conditions: Hepatitis C virus, genotype 1b, read-out: NeoLuc EC50, Table 1; HCV replicon cells, genotype 1b

Compound	pEC50
C=C(C)S(=O)(=O)NC(=O)c1ccc2c(C3CCCCC3)c3n(c2c1)C[C@@]1(C(=O)N2CC45COCC4(CN(C)C5)C2)C[C@H]1c1cc(OC)ccc1-3 (stereo partly shown)	6.30 to 8.72
COc1ccc2c(c1)[C@@H]1C[C@]1(C(=O)N1CC34CNCC3(CN(C)C4)C1)Cn1c-2c(C2CCCCC2)c2ccc(C(=O)NS(=O)(=O)C(C)C)cc21 (stereo partly shown)	6.30 to 8.72
COc1ccc2c(c1)C=C(C(=O)N1CC34CN(C)CC3(CN(C)C4)C1)Cn1c-2c(C2CCCCC2)c2ccc(C(=O)NS(=O)(=O)N(C)C)cc21 (stereo not shown)	6.30 to 8.72
COc1ccc2c(c1)C1CC1(C(=O)N1CC34CNCC3(CN(C)C4)C1)Cn1c-2c(C2CCCCC2)c2ccc(C(=O)NS(=O)(=O)N(C)C)cc21 (stereo not shown)	6.30 to 8.72
COc1ccc2c(c1)C1CC1(C(=O)N1CC34CN(C)CC3(CN(C)C4)C1)Cn1c-2c(C2CCCCC2)c2ccc(C(=O)NS(=O)(=O)N(C)C)cc21 (stereo not shown)	6.30 to 8.72
COc1ccc2c(c1)[C@@H]1C[C@]1(C(=O)N1CC34CN(C)CC3(CN(C)C4)C1)Cn1c-2c(C2CCCCC2)c2ccc(C(=O)NS(=O)(=O)C(C)C)cc21 (stereo partly shown)	6.30 to 8.72
COc1ccc2c(c1)[C@@H]1C[C@]1(C(=O)N1CC34CNCC3(COC4)C1)Cn1c-2c(C2CCCCC2)c2ccc(C(=O)NS(=O)(=O)C(C)C)cc21 (stereo partly shown)	6.30 to 8.72
COc1ccc2c(c1)[C@@H]1C[C@]1(C(=O)N1CC34COCC3(CN(C)C4)C1)Cn1c-2c(C2CCCCC2)c2ccc(C(=O)NS(=O)(=O)C(C)C)cc21 (stereo partly shown)	6.30 to 8.72
COc1ccc2c(c1)C1CC1(C(=O)N1CC34CNCC3(COC4)C1)Cn1c-2c(C2CCCCC2)c2ccc(C(=O)NS(=O)(=O)N(C)C)cc21 (stereo not shown)	6.30 to 8.72
COc1ccc2c(c1)C=C(C(=O)N1CC34CNCC3(COC4)C1)Cn1c-2c(C2CCCCC2)c2ccc(C(=O)NS(=O)(=O)N(C)C)cc21 (stereo not shown)	6.30 to 8.72
COc1ccc2c(c1)C=C(C(=O)N1CC34CNCC3(COC4)C1)Cn1c-2c(C2CCCCC2)c2ccc(C(=O)NS(=O)(=O)C3CC3)cc21 (stereo not shown)	6.30 to 8.72
COc1ccc2c(c1)C=C(C(=O)N1CC34COCC3(CN(C)C4)C1)Cn1c-2c(C2CCCCC2)c2ccc(C(=O)NS(=O)(=O)N(C)C)cc21 (stereo not shown)	6.30 to 8.72
COc1ccc2c(c1)C=C(C(=O)N1CC34COCC3(CN(C)C4)C1)Cn1c-2c(C2CCCCC2)c2ccc(C(=O)NS(=O)(=O)C3CC3)cc21 (stereo not shown)	6.30 to 8.72
CCN1CC23COCC2(C1)CN(C(=O)[C@]12C[C@H]1c1cc(OC)ccc1-c1c(C4CCCCC4)c4ccc(C(=O)NS(=O)(=O)C(C)C)cc4n1C2)C3 (stereo partly shown)	6.30 to 8.72
COc1ccc2c(c1)CC(C(=O)N1CC34CNCC3(COC4)C1)Cn1c-2c(C2CCCCC2)c2ccc(C(=O)NS(=O)(=O)C3CC3)cc21 (stereo not shown)	< 6.00
COc1ccc2c(c1)CC(C(=O)N1CC34CN(C)CC3(CN(C)C4)C1)Cn1c-2c(C2CCCCC2)c2ccc(C(=O)NS(=O)(=O)N(C)C)cc21 (stereo not shown)	6.30 to 8.72
COc1ccc2c(c1)C1CC1(C(=O)N1CC34COCC3(CN(C(C)=O)C4)C1)Cn1c-2c(C2CCCCC2)c2ccc(C(=O)NS(=O)(=O)CC(C)C)cc21 (stereo not shown)	6.30 to 8.72
COc1ccc2c(c1)CC(C(=O)N1CC34CNCC3(CN(C)C4)C1)Cn1c-2c(C2CCCCC2)c2ccc(C(=O)NS(=O)(=O)C3CC3)cc21 (stereo not shown)	< 6.00
COc1ccc2c(c1)CC(C(=O)N1CC34COCC3(CN(C)C4)C1)Cn1c-2c(C2CCCCC2)c2ccc(C(=O)NS(=O)(=O)C3CC3)cc21 (stereo not shown)	6.30 to 8.72
COc1ccc2c(c1)[C@@H]1C[C@]1(C(=O)N1CC34COCC3(C1)CN(C1CC1)C4)Cn1c-2c(C2CCCCC2)c2ccc(C(=O)NS(=O)(=O)C(C)C)cc21 (stereo partly shown)	6.30 to 8.72
COc1ccc2c(c1)[C@@H]1C[C@]1(C(=O)N1CC34COCC3(C1)N(C(C)=O)C4)Cn1c-2c(C2CCCCC2)c2ccc(C(=O)NS(=O)(=O)N(C)C)cc21 (stereo partly shown)	6.30 to 8.72
COc1ccc2c(c1)C=C(C(=O)N1CC34COCC3(C1)N(C(C)=O)C4)Cn1c-2c(C2CCCCC2)c2ccc(C(=O)NS(=O)(=O)N(C)C)cc21 (stereo not shown)	6.30 to 8.72
COc1ccc2c(c1)C1CC1(C(=O)N1CC34COCC3(CN(C)C4)C1)Cn1c-2c(C2CCCCC2)c2ccc(C(=O)NS(=O)(=O)N(C)C)cc21 (stereo not shown) [drawing 61]	6.30 to 8.72
COc1ccc2c(c1)[C@@H]1C[C@]1(C(=O)N1CC34COCC3(C1)N(C(C)=O)C4)Cn1c-2c(C2CCCCC2)c2ccc(C(=O)NS(=O)(=O)C(C)C)cc21 (stereo partly shown) [drawing 73]	6.30 to 8.72

Same assay, conditions: Table 2; HCV replicon cells; read-out: NeoLuc EC50

Compound	pEC50
COc1ccc2c(c1)[C@@H]1C[C@]1(C(=O)N1CC34COCC3(C1)N(C(C)=O)C4)Cn1c-2c(C2CCCCC2)c2ccc(C(=O)NS(=O)(=O)C(C)C)cc21 (stereo partly shown) [drawing 109]	6.89
COc1ccc2c(c1)[C@@H]1C[C@]1(C(=O)N1CC34COCC3(C1)N(C(C)=O)C4)Cn1c-2c(C2CCCCC2)c2ccc(C(=O)NS(=O)(=O)C(C)C)cc21 (stereo partly shown) [drawing 110]	8.00
